Assay results reported in ChEMBL document CHEMBL1121752, “Cell-specific ligands for selective drug delivery to tissues and organs” (J Med Chem, 1981).

Experiments:
[1] = Compound was evaluated for the inhibition of [125I]-labeled D-mannose-bovine serum albumin binding to alveolar macrophages; design: species or system Rattus norvegicus
Rattus norvegicus [2] = organism: Rattus norvegicus; assay: Compound was evaluated for the inhibition of [125I]-labeled D-mannose-bovine serum albumin binding to alveolar macrophages at 10 uM
Rattus norvegicus [3] = organism: Rattus norvegicus; assay: Compound was evaluated for the inhibition of [125I]-labeled D-mannose-bovine serum albumin binding to alveolar macrophages at 100 uM
Rattus norvegicus [4] = organism: Rattus norvegicus; assay: Compound was evaluated for the inhibition of [125I]-labeled D-mannose-bovine serum albumin binding to alveolar macrophages at 50 uM

Compound	Ki [1] [µM]	inhibition (Rattus norvegicus [2]) [%]	inhibition (Rattus norvegicus [3]) [%]	inhibition (Rattus norvegicus [4]) [%]
O=C(CCSC1OC(CO)C(O)C(O)C1O)NCCCC[C@@H](NC(=O)CCSC1OC(CO)C(O)C(O)C1O)C(=O)O (stereo partly specified)	6.2			
CC1OC(SCCC(=O)NCCCCC(NC(=O)[C@@H](CCCCNC(=O)CCSC2OC(C)C(O)C(O)C2O)NC(=O)CCSC2OC(C)C(O)C(O)C2O)C(=O)O)C(O)C(O)C1O (stereo partly specified)		9	45	
O=C(CCSC1OC(CO)C(O)C(O)C1O)NCCCC[C@H](NC(=O)CCSC1OC(CO)C(O)C(O)C1O)C(=O)O (stereo partly specified)	7.7			
O=C(CCSC1OC(CO)C(O)C(O)C1O)NCCCCC(NC(=O)[C@@H](CCCCNC(=O)CCSC1OC(CO)C(O)C(O)C1O)NC(=O)CCSC1OC(CO)C(O)C(O)C1O)C(=O)O (stereo in doubt; 14) [listing 1 of 2 here]		43	89	81
CC(C)CCCC(C)C1CCC2C3CC=C4CC(OCCCCCCNC(=O)C(CCCCNC(=O)CCSC5OC(CO)C(O)C(O)C5O)NC(=O)[C@@H](CCCCNC(=O)CCSC5OC(CO)C(O)C(O)C5O)NC(=O)CCSC5OC(CO)C(O)C(O)C5O)CCC4(C)C3CCC12C (stereo partly specified)	4			
O=C(CCSC1OC(CO)C(O)C(O)C1O)NCCCCC(NC(=O)[C@@H](CCCCNC(=O)CCSC1OC(CO)C(O)C(O)C1O)NC(=O)CCSC1OC(CO)C(O)C(O)C1O)C(=O)O (stereo in doubt; 14) [listing 2 of 2 here]	3.9			
O=C(CCSC1OC(CO)C(O)C(O)C1O)NCCCCC(NC(=O)[C@@H](CCCCNC(=O)CCSC1OC(CO)C(O)C(O)C1O)NC(=O)CCSC1OC(CO)C(O)C(O)C1O)C(=O)O (stereo in doubt; 31)		0	2	0
O=C(CSC1OC(CO)C(O)C(O)C1O)NCCCCC(NC(=O)[C@@H](CCCCNC(=O)CSC1OC(CO)C(O)C(O)C1O)NC(=O)CSC1OC(CO)C(O)C(O)C1O)C(=O)O (stereo partly specified)		27	81	68
O=C(CCSC1OC(CO)C(O)C(O)C1O)NCCCCC(NC(=O)C(CCCCNC(=O)CCSC1OC(CO)C(O)C(O)C1O)NC(=O)[C@@H](CCCCNC(=O)CCSC1OC(CO)C(O)C(O)C1O)NC(=O)CCSC1OC(CO)C(O)C(O)C1O)C(=O)O (stereo partly specified)	3.6			

The next lines start with the values.

Ki [1] [µM]	inhibition (Rattus norvegicus [2]) [%]	inhibition (Rattus norvegicus [3]) [%]	inhibition (Rattus norvegicus [4]) [%]	Compound
6				CC(=O)C(CCCC/N=C(/N)CSC1OC(CO)C(O)C(O)C1O)NC(=O)[C@@H](CCCC/N=C(\N)CSC1OC(CO)C(O)C(O)C1O)/N=C(\N)CSC1OC(CO)C(O)C(O)C1O (stereo partly specified)
100				N/C(CSC1OC(CO)C(O)C(O)C1O)=N\CCCC[C@@H](/N=C(\N)CSC1OC(CO)C(O)C(O)C1O)C(=O)O (stereo partly specified)
8		5		NCCCCCCNC(=O)C(CCCCNC(=O)CCSC1OC(CO)C(O)C(O)C1O)NC(=O)[C@@H](CCCCNC(=O)CCSC1OC(CO)C(O)C(O)C1O)NC(=O)CCSC1OC(CO)C(O)C(O)C1O (stereo partly specified)
9.3				O=C(CCSC1OC(CO)C(O)C(O)C1O)NCCCCC(NC(=O)[C@@H](CCCCNC(=O)CCSC1OC(CO)C(O)C(O)C1O)NC(=O)CCSC1OC(CO)C(O)C(O)C1O)C(=O)NCCCCCCNC(=O)CCc1ccc(O)cc1 (stereo partly specified)
